Laboratory results: patent publication US20240327459A1, “PEPTIDE FRAGMENTS FOR TREATMENT OF DIABETES” (Follicum AB, priority 2018, published 2024)
“Also recorded” adds a separate entry of the source.

Columns and labels:
Assay type in all cases: cell-based, rat
INS-1 cells = test: Proliferation of INS-1 cells ([methyl-3H] thymidine incorporation); details: wells coated with peptide and blocked with BSA, vs BSA coated control wells
Protocol: To investigate if FOL-005 and FOL-014 could induce proliferation of β-cells we used INS-1 cells. Rat INS-1 cells were seeded in 96-well plates in RPMI medium with supplement and after 2 hours the medium was changed to RPMI without supplement. During the proliferation experiment the cells were incubated at different test conditions (FOL-005, FOL-014, coated or in solution, 48 h incubation) and during the last 20 hours of culture period the cells were pulsed with 1 μ Ci/well of [methyl-3H] thymidine. The cells were then harvested onto glass fiber filters using a FilterMate harvester. The filters were air dried, and the bound radioactivity was measured using a liquid scintillation counter. To study whether FOL-005 influenced β-cell proliferation, INS-1 cells were treated with increasing amounts of soluble FOL-005 (0.06-6 μM) during 48 hours and proliferation was measured with radiolabeled thymidine incorporation into newly synthesized DNA.

INS-1E cells = test: Insulin secreting capacity after 72 hours of glucotoxic conditions (Examples 19, 22); details: Example 19, 20 mM glucose 72 hours with peptide, then 16.7 mM glucose 1 h
Protocol: To investigate the β-cell protective effect of FOL-056, we subjected INS-1E to cytotoxic levels of glucose for 72 hours. Rat INS-1E cells were seeded in 96-well plates (2×10^3 cells/well) in cRPMI medium. Following 72 hours of incubation, the medium was changed to RPMI containing 20 mM glucose with or without FOL-056 or FOL-014 and were cultured at 37° C. during an additional 72 hours to induce glucotoxicity. RPMI containing 5 mM glucose was included as a low glucose control. Following 72 hours, the medium was removed and the INS-1E cells were equilibrated in Krebs-Ringer bicarbonate buffer (KREB), pH 7.4, (supplemented with 10 mM HEPES, 0.1% bovine serum albumin and 2.8 mM glucose) for 2 hours. After equilibration, the buffer was changed and the INS-1E cells were incubated in KREBs containing 16.7 mM glucose […] during 1 h. Immediately after incubation, an aliquot of the buffer was removed and frozen for subsequent assay of insulin content.
To investigate the β-cell protective effect of several novel peptide fragments derived from FOL-005 and FOL-014, INS-1 cells were subjected to cytotoxic levels of glucose for 72 hours. […] In order to correct for the variance between experiments, all values were normalized to, and expressed as percentage of the average value of the high glucose control in the individual experiments. […]

INS-1 β-cells = test: Insulin secretion from INS-1 cells, insulin ELISA (Examples 8-11, 20)
Protocol: Materials and methods: Rat INS-1 β-cells (passages 60-70) were cultured at 37° C. and 5% CO2 in cRPMI media (RPMI 1640 supplemented with 10% fetal bovine serum, 50 IU/mL penicillin, 50 mg/L streptomycin, 10 mM HEPES, 2 mM L-glutamine, 1 mM sodium pyruvate, and 50 μM beta-mercaptoethanol) unless otherwise stated. INS-1 cells were seeded in 96-well plates (2×10^3 cells/well) in cRPMI medium and following overnight incubation, the cells were washed in PBS before pre-incubation for 120 min at 37° C. in Krebs-Ringer bicarbonate buffer, pH 7.4, supplemented with 10 mM HEPES, 0.1% bovine serum albumin and 2.8 mM glucose. Following pre-incubation, the buffer was exchanged with fresh Krebs-Ringer buffer as described above and supplemented with specific glucose concentrations and peptides for the individual experiments as described below. Immediately after 60 minutes incubation at 37° C., an aliquot of the buffer was removed and frozen for subsequent insulin ELIZA assay.
Insulin release from INS-1 cells were measured following exposure to increasing concentrations of FOL-014 and compared with the stimulatory effect of GLP-1 and untreated control during high glucose concentration (16.7 mM). […] At 6 nM or higher, FOL-014 triggered insulin release within the same range as 100 nM GLP-1. At concentrations ranging from 0.6-60 nM, insulin secretion increased in a linear fashion in relation to increasing FOL-014 concentrations.
Insulin release from INS-1 cells was measured following exposure to 60 nM FOL-014 at increasing concentrations of glucose. In untreated control samples, elevated glucose concentrations increased the insulin secretion at 11.1 mM glucose or higher. […] (FIG. 6).
Insulin secretion from INS-1 cells was measured following exposure to FOL-005, FOL-014, GLP-1 or combinations of those, expressed as percentage of untreated control. […] The experiments were performed in the presence of 16.7 mM glucose (FIG. 7).
Novel peptide analogues, derived from either FOL-005 or FOL-014 were tested concerning their ability to induce insulin secretion in two separate INS-1 cell lines in the presence of 16.7 mM glucose. FOL-005, FOL-014 and GLP-1 as well as a high glucose (16.7 mM) and a low glucose (2.8 mM) control (not shown) was included in each experiment and the peptide concentration was 100 nM. In order to correct for the variance between experiments, all values were normalized to, and expressed as percentage of the average value of the high glucose control in the individual experiments. The analogues were subsequently ranked according to performance (FIGS. 11A and 11B).
Insulin secretion from INS-1 cells was measured following exposure to FOL-056, GLP-1 or a combination of those, expressed as percentage of untreated control. […] The experiments were performed in the presence of 16.7 mM glucose (FIG. 15).

KPLAEIDSIELSYGIK (MISC_FEATURE - peptide, FOL-014)
proliferation of INS-1 cells (INS-1 cells): stimulated proliferation compared to control; also recorded: induced more proliferation compared to only BSA coated wells
insulin secreting ability after glucotoxic conditions (INS-1E cells): significantly improved the insulin secreting ability of the β-cells as compared with high glucose media alone
insulin secretion at increasing glucose concentrations (INS-1 β-cells; 60 nM peptide, glucose 5.5 mM or higher, vs untreated control cells): increased significantly in a glucose dependent fashion already from 5.5 mM glucose; also recorded: significantly higher
concentration range in which insulin secretion increased in a linear fashion (INS-1 β-cells; 16.7 mM glucose): 0.6 to 60 nM
concentration triggering insulin release within the same range as 100 nM GLP-1 (INS-1 β-cells; 16.7 mM glucose): ≥ 6 nM
insulin release (INS-1 β-cells; all concentrations tested, 16.7 mM glucose, vs untreated control): elicited significantly higher insulin release as compared with the untreated control; also recorded: significant increase in insulin secretion for all concentrations tested
insulin secretion (INS-1 β-cells; concentrations ≥600 nM, 16.7 mM glucose): did not increase the insulin secretion; also recorded: less pronounced effect on insulin secretion
